This is an account of results in ChEMBL document CHEMBL1158638, “MMP-13 selective isonipecotamide alpha-sulfone hydroxamates” (Bioorg Med Chem Lett, 2010).

Structures are written as SMILES.

The target in one data set is T1, Interstitial collagenase (Homo sapiens, UniProt P03956).
T1 sequence (P03956 whole entry): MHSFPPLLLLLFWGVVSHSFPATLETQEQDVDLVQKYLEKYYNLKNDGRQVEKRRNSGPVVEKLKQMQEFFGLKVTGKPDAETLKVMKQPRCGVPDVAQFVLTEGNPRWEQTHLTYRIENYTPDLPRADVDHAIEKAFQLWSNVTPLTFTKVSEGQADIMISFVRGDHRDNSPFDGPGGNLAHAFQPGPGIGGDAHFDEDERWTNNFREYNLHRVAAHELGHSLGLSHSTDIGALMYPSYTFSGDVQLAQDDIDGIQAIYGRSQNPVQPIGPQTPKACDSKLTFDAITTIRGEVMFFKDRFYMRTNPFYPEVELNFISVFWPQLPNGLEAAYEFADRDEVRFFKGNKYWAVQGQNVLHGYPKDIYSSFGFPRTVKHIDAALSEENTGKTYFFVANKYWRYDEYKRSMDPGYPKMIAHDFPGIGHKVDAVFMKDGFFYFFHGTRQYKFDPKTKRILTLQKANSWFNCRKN
The data set can be described thus: Inhibition of MMP1.

The nature of data set [1]: Half life in po dosed rat. Format: ADME, organism-based. The following applies: in vivo.
The next data set concerns the target Neutrophil collagenase (Homo sapiens, UniProt P22894). The data set is described as follows: Inhibition of MMP8.
Data set [2] can be described thus: Bioavailability in po dosed rat. The data set is classed as ADME, organism-based. The following applies: in vivo.
The next data set has as its target Stromelysin-1 (Homo sapiens, UniProt P08254). The data set can be described thus: Inhibition of MMP3.
The target of data set [3] is Matrix metalloproteinase-9 (Homo sapiens, UniProt P14780). The data set is described as follows: Inhibition of MMP9.
Data set [4] addresses Matrix metalloproteinase-14 (Homo sapiens, UniProt P50281). The data set is described as follows: Inhibition of MMP14.
A further data set concerns the target Collagenase 3 (Homo sapiens, UniProt P45452).
The target of data set [5] is 72 kDa type IV collagenase (Homo sapiens, UniProt P08253). The data set can be described thus: Inhibition of MMP2.
Data set [6] is described as follows: Selectivity ratio of IC50 for MMP2 to MMP13.

Chain of Neutrophil collagenase (P22894 whole entry): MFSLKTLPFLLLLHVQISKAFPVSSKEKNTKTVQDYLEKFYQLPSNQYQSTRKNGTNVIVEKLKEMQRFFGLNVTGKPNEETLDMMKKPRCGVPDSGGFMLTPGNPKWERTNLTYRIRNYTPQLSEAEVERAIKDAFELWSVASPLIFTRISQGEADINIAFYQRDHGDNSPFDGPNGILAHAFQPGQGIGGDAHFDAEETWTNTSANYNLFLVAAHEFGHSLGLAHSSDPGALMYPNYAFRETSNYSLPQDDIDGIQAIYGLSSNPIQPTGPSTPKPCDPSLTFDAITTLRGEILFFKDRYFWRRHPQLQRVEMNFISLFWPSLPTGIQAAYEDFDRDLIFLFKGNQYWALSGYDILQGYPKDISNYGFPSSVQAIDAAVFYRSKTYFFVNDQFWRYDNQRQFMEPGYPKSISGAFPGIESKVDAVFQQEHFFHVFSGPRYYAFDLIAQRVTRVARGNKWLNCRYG
Chain of Matrix metalloproteinase-9 (P14780 whole entry): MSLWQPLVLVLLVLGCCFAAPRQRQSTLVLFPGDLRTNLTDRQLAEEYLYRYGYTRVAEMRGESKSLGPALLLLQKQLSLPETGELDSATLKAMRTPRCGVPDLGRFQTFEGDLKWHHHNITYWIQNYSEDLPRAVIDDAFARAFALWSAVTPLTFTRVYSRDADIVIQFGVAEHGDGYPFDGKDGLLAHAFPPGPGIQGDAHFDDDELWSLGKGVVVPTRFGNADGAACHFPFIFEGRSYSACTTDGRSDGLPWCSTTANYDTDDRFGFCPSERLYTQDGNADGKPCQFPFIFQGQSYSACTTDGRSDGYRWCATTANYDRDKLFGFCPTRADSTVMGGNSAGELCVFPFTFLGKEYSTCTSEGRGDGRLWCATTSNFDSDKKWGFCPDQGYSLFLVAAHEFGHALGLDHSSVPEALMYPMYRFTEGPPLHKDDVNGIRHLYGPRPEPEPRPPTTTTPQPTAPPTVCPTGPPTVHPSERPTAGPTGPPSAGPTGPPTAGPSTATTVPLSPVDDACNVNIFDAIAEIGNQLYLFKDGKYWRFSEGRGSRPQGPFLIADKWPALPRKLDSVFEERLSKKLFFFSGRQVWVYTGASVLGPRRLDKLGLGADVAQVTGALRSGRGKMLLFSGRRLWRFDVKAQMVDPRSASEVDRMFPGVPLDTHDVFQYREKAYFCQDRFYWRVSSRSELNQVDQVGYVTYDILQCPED
Chain of Stromelysin-1 (P08254 whole entry): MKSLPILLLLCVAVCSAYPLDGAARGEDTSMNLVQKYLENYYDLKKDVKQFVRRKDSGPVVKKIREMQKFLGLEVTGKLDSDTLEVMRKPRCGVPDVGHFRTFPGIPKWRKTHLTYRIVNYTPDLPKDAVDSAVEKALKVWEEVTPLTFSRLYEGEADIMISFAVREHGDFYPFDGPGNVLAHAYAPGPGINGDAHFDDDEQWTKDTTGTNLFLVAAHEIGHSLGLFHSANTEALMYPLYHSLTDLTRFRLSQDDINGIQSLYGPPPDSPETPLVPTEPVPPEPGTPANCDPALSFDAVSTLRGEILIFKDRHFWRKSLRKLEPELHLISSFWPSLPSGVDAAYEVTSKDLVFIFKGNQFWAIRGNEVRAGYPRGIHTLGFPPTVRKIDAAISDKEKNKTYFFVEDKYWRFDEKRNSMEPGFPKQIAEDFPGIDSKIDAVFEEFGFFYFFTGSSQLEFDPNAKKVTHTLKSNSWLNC
Chain of 72 kDa type IV collagenase (P08253 whole entry): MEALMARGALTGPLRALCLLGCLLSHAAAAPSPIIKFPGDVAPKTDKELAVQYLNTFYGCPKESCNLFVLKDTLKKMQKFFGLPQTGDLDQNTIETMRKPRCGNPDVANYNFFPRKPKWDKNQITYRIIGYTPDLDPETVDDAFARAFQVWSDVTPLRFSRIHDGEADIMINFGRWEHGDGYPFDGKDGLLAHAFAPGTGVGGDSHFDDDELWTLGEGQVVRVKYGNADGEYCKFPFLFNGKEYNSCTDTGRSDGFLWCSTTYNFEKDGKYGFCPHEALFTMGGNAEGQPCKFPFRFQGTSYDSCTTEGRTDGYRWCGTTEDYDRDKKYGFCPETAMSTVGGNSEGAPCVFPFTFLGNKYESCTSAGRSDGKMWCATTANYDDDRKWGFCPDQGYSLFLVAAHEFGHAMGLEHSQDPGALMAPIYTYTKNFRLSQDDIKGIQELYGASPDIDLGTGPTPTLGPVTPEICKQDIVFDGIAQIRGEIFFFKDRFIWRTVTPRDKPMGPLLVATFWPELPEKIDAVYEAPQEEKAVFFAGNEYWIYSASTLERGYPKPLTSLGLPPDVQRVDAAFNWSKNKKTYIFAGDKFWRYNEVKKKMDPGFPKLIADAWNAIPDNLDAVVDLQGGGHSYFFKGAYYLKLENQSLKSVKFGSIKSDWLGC

Take `COCCN1CCC(C(=O)NO)(S(=O)(=O)c2ccc(N3CCC(C(=O)Nc4ccccc4)CC3)cc2)CC1`: the IC50 against Interstitial collagenase came to 10 µM; against Neutrophil collagenase, 10 µM; against Stromelysin-1 it was 370 nM; in data set [3] it was 1.23 µM; in data set [4], 10 µM. Besides, the half-life in [1] is 49.8 min. Moreover, the bioavailability in data set [2] worked out at 4.2%.
With `COCCN1CCC(C(=O)NO)(S(=O)(=O)c2ccc(N3CCC(C(=O)N4CC(C)NC(C)C4)CC3)cc2)CC1` (centres undefined), the IC50 on Collagenase 3 was 50 nM; in data set [5], 1700 nM. Moreover, the Ratio IC50 in data set [6] was found to be 34.
On to `COCCN1CCN(C(=O)C2CCN(c3ccc(S(=O)(=O)C4(C(=O)NO)CCOCC4)cc3)CC2)CC1`, for which the IC50 against Collagenase 3 came to 45 nM; in [5], 7000 nM. Also, the Ratio IC50 in data set [6] amounted to 156.
As for `O=C(C1CCN(c2ccc(S(=O)(=O)C3(C(=O)NO)CCOCC3)cc2)CC1)N1CCN(c2ccccc2F)CC1`, the Ratio IC50 in data set [6] was 209.
On the same count and under the same terms, to `O=C(C1CCN(c2ccc(S(=O)(=O)C3(C(=O)NO)CCOCC3)cc2)CC1)N1CCN(c2ccccn2)CC1` belongs 336.
The same measure, in the same setting: to `O=C(C1CCN(c2ccc(S(=O)(=O)C3(C(=O)NO)CCOCC3)cc2)CC1)N1CCN(c2ccc(F)cc2)CC1` belongs 267.
Regarding `O=C(C1CCN(c2ccc(S(=O)(=O)C3(C(=O)NO)CCOCC3)cc2)CC1)N1CCc2ccccc2C1`, the IC50 at Collagenase 3 came to 9 nM; in data set [5], 2100 nM. Moreover, the Ratio IC50 in data set [6] is 233.
On the same counts, the results for `CN(Cc1ccccc1)C(=O)C1CCN(c2ccc(S(=O)(=O)C3(C(=O)NO)CCN(C4CC4)CC3)cc2)CC1` are 20 nM, 3500 nM and 175.
In turn, `CN(C)CCN1CCN(C(=O)C2CCN(c3ccc(S(=O)(=O)C4(C(=O)NO)CCOCC4)cc3)CC2)CC1` showed an IC50 in data set [5] of more than 10000 nM. In addition, the Ratio IC50 in data set [6] was more than 111.
For the compound `COc1ccccc1N1CCN(C(=O)C2CCN(c3ccc(S(=O)(=O)C4(C(=O)NO)CCOCC4)cc3)CC2)CC1`, the Ratio IC50 in data set [6] turned out to be 250.
In the case of `Cc1cccc(N2CCN(C(=O)C3CCN(c4ccc(S(=O)(=O)C5(C(=O)NO)CCOCC5)cc4)CC3)CC2)c1C`, the 50% inhibitory concentration (IC50) at Interstitial collagenase is more than 10 µM; against Neutrophil collagenase, more than 10 µM; against Stromelysin-1, 160 nM; at Collagenase 3, 4 nM; in [5] it was 6000 nM; in [3], more than 10 µM. The IC50 in [4] was more than 10 µM. Moreover, the Ratio IC50 in [6] came out at 1500.
As for `O=C(C1CCN(c2ccc(S(=O)(=O)C3(C(=O)NO)CCOCC3)cc2)CC1)N1CCN(CCc2ccccc2)CC1`, the IC50 on Collagenase 3 came to 25.1 nM; in data set [5], 900 nM. Also, the Ratio IC50 in [6] is 36.
Regarding `C[C@@H]1COC[C@H](C)N1C(=O)C1CCN(c2ccc(S(=O)(=O)C3(C(=O)NO)CCOCC3)cc2)CC1`, the IC50 on Collagenase 3 was 18.1 nM; in [5], more than 10000 nM.
As for `O=C(C1CCN(c2ccc(S(=O)(=O)C3(C(=O)NO)CCOCC3)cc2)CC1)N1CCN(c2cnccn2)CC1`, the Ratio IC50 in data set [6] is 34.
Same read-out and setting: to `O=C(C1CCN(c2ccc(S(=O)(=O)C3(C(=O)NO)CCOCC3)cc2)CC1)N1CCN(c2ccncc2)CC1` belongs 58.
`CC(=O)N1CCN(C(=O)C2CCN(c3ccc(S(=O)(=O)C4(C(=O)NO)CCOCC4)cc3)CC2)CC1`: the Ratio IC50 in data set [6] turned out to be 50.
Compound `CC1CN(C(=O)C2CCN(c3ccc(S(=O)(=O)C4(C(=O)NO)CCOCC4)cc3)CC2)CC(C)N1` (centres undefined) came in with an IC50 in data set [5] of 7300 nM.
On to `CC(=O)c1ccc(N2CCN(C(=O)C3CCN(c4ccc(S(=O)(=O)C5(C(=O)NO)CCOCC5)cc4)CC3)CC2)cc1`, for which the Ratio IC50 in [6] amounted to 104.
Still for that read-out and setting: the figure for `Cc1ccc(N2CCN(C(=O)C3CCN(c4ccc(S(=O)(=O)C5(C(=O)NO)CCOCC5)cc4)CC3)CC2)c(C)c1` is 459.
The compound `COc1cc2c(cc1OC)CN(C(=O)C1CCN(c3ccc(S(=O)(=O)C4(C(=O)NO)CCOCC4)cc3)CC1)CC2` returned an IC50 in data set [5] of 2400 nM. In other words, the single-digit micromolar range.
As to `O=C(C1CCN(c2ccc(S(=O)(=O)C3(C(=O)NO)CCOCC3)cc2)CC1)N1CCN(c2ncccn2)CC1`, the Ratio IC50 in [6] was found to be 250.
Consider `Cc1cccc(N2CCN(C(=O)C3CCN(c4ccc(S(=O)(=O)C5(C(=O)NO)CCN(C6CC6)CC5)cc4)CC3)CC2)c1C`, for which the IC50 is more than 10 µM at Interstitial collagenase; 9.4 µM against Neutrophil collagenase; 550 nM against Stromelysin-1; 27.7 nM against Collagenase 3; 6350 nM in data set [5]; more than 10 µM in [3]. In [4], this compound displayed an IC50 of more than 10 µM.
In the case of `C=CCN(C)C(=O)C1CCN(c2ccc(S(=O)(=O)C3(C(=O)NO)CCOCC3)cc2)CC1`, the IC50 was found to be 35 nM at Collagenase 3 and 2900 nM in data set [5]. Besides, in data set [6], the Ratio IC50 was determined as 83.
Turning to `CC(C)N1CCN(C(=O)C2CCN(c3ccc(S(=O)(=O)C4(C(=O)NO)CCOCC4)cc3)CC2)CC1`, the Ratio IC50 in data set [6] came to 196.
`C#CCN(C)C(=O)C1CCN(c2ccc(S(=O)(=O)C3(C(=O)NO)CCOCC3)cc2)CC1`: the figures for the IC50 (at Collagenase 3; in data set [5]) were 24.5 nM and 2100 nM, respectively. Also, the Ratio IC50 in data set [6] stood at 86.
With `O=C(C1CCN(c2ccc(S(=O)(=O)C3(C(=O)NO)CCOCC3)cc2)CC1)N1CCN(CCO)CC1`, the Ratio IC50 in data set [6] stood at 150.
Take `COCCN1CCC(C(=O)NO)(S(=O)(=O)c2ccc(N3CCC(C(=O)N4CCN(c5cccc(C)c5C)CC4)CC3)cc2)CC1`: the IC50 is more than 10 µM on Interstitial collagenase, 70 nM against Collagenase 3 and 400 nM in data set [5].
